Tested on: Palmer Amaranth
Assay: Field treatment of crop residue material with diluted indaziflam suspension concentrate at soybean harvest; Palmer Amaranth infestation in the next growing season
Type: in vivo
Conditions: about 1 g of indaziflam per hectare of spread crop residue material, applied at the expelling end of the seed pulverizer during harvest; assessed in the next growing season
Procedure: A crop of soybeans is grown infested with Palmer Amaranth. The soybean crop is grown to harvest and the Palmer amaranth is in the seed stage, just before seed drop. A combine harvester equipped with a follow-along seed pulverizer as described in WO 2009/100500 A is used to harvest the crop. The seed pulverizer is fitted with a liquid applicator at the expelling end to treat crop residue material expelled from the pulverizer with a diluted indaziflam suspension concentrate—before the expelled material touches the ground—such that the combine harvester-pulverizer deposits treated crop residue material such that the land so harvested is treated with about 1 g of indaziflam per hectare of spread crop residue material, without treating the land directly.
In the next growing season, another soybean crop has less than 10% of the volume of Palmer Amaranth compared to the present soybean harvest.

## Cc1ccc2c(c1)[C@H](Nc1nc(N)nc(C(C)F)n1)[C@@H](C)C2 (mixture of isomers) [indaziflam, 2-N-[(1R,2S)-2,3-dihydro-2,6-dimethyl-1H-inden-1-yl]-6-[(1RS)-1-fluoroethyl]-1,3,5-triazine-2,4-diamine]
  volume of Palmer Amaranth in next season's soybean crop compared to the present soybean harvest: less than 10%

— patent US20250169500A1, “METHOD AND APPARATUS FOR CONTROLLING WEEDS BY POST-HARVEST TREATMENT OF WEED SEEDS” (BAYER CROPSCIENCE LP, priority 2022, published 2025)
